Assay results as given in US12540163B2 (priority 2021, dated 2026).
“And” between values parts separate entries of the source, which are not always exact repeats. Identical values can stand only once.

How the values were obtained:
[1] = system: non-capacitated human sperm
[2] = system: non-capacitated human sperm; remark: listed apart in the source
hHv1 = hHv1 (Homo sapiens, UniProt Q96D96)
hHv1, sequence (Q96D96 whole entry): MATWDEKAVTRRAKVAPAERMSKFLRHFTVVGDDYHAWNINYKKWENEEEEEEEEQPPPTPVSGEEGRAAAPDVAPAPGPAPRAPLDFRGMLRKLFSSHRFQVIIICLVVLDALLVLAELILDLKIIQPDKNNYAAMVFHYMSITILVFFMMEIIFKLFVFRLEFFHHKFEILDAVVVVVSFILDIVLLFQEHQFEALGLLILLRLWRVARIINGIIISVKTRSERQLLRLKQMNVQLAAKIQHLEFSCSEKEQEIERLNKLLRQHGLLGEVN

CC(C)[C@H]1c2ccc(F)cc2CC[C@@]1(CCN(C)CCCc1nc2ccccc2[nH]1)OC(=O)C1CC1 [NNC]
inhibition of Alb-potentiated [Ca2+]i increase [1]: inhibited

bovine serum albumin [BSA]
increase of progesterone-induced peak [Ca2+]i [1]: 2.2 fold
change of pHi [2]: increased the speed of cytoplasmic alkalization

O=C(O)CN(CCN(CC(=O)O)CC(=O)O)CC(=O)O [EDTA]
hHv1 in HEK293T cells V1/2 after application (hHv1): −29 ± 3 mV
Sperm H+ current V1/2 after application (hHv1 in human sperm): 4 mV and 4 ± 1 mV
Sperm H+ current V1/2 shift (hHv1 in human sperm): 11 mV
